The record followed here is US20260158031A1, “AROMATIC HETEROCYCLIC COMPOUND, PHARMACEUTICAL COMPOSITION CONTAINING THE SAME, AND USE THEREOF” (HANG ZHOU YUHONG PHARMATECH CO., LTD., priority 2021, published 2026).

Structures are written as SMILES.

The test system of test [1] is SRBC mouse model. The test can be described thus: SRBC-induced delayed type hypersensitivity (DTH) in mice. The format is in vivo. The note with it: male Balb/c mice, 100 mg/kg by gavage once a day, day 0 to day 6, FIG. 1. Here is the method:
PF-06651600 was used as a positive control compound.
Drug preparation: the compound was weighed and added with a 0.5% CMC-Na solution to prepare a drug suspension (with an administration dose of 10 mg/mL).
Induction of delayed type hypersensitivity (DTH) and administration: 30 male Balb/c mice were weighed and randomly divided into 6 groups according to body weight, with 5 mice in each group. The experimental period lasted for 7 days in total. On day 0, the mice were subcutaneously injected with sheep red blood cells (SRBCs) for sensitization. From day 0, the mice were administrated with 100 mg/kg by gavage (once a day) until day 6. On day 6, SRBCs were injected into the right hind foot pad of the mice for excitation. On day 7 of the experiment, measurements were conducted, photographs were taken, and the experiment was ended.
Pharmacodynamic detection indicators of disease models: the detection and observation indicators were the degree of redness and swelling and detected thicknesses of paw pads of the mice in the model group as induced by SRBC. The thickness of the right paw was measured as the baseline before the SRBC injection excitation on day 6. At the end of the experiment […], the thickness of the right paw was measured again, and the difference in thickness of the paw before and after the second injection was calculated.
Statistical processing: experimental data was expressed as mean±standard deviation (Mean±SD). All data was statistically analyzed using a T-test. P<0.05 was considered to be statistically different.

For test [2], the system named is collagen-induced mouse arthritis model. The test can be described thus: Collagen-induced mouse arthritis model (mCIA). The format is in vivo, DBA/1J mice. Particulars: female DBA/1J CIA mice, 50 mg/kg once a day, FIG. 2. The source says: Objective of Experiment: to test the immunosuppressive activity of YZ001052 in a mCIA model. PF-06651600 was used as a positive control compound.
Complete and incomplete Freund's adjuvants were mixed with a chicken type II collagen solution in equal proportions to form an emulsifier. Except for the blank control group, on Day 0, a mixture of a complete Freund's adjuvant and the chicken type II collagen solution was subcutaneously injected into the tail roots and thigh roots of the mice, with 100 μL being injected subcutaneously at the tail root of each mouse; and 50 μL being injected subcutaneously at each of the two thigh roots of each mouse (primary immunization). On day 21, the mice were subcutaneously injected with 200 μL of a mixture of an incomplete Freund's adjuvant and the chicken type II collagen solution as a booster injection (second immunization). […] Measurement of paw thickness: the thicknesses of the left and right hind feet of the mice were measured with a vernier caliper to serve as the paw swelling degree and recorded, and the detection frequency was once every 3 days.

Test [3] deals with DSS-induced mouse inflammatory bowel disease model. Nature of the test: DSS-induced mouse inflammatory bowel disease model. Format: in vivo. The note with it: female C57BL/6 mice, 5% DSS, 50 mg/kg once a day, day 8, compared with model group, FIG. 3. Here is the method: Objective of Experiment: to test the immunosuppressive activity of YZ001052 in a DSS-induced mouse inflammatory bowel disease model. PF-06651600 was used as a positive control compound.
50 g of DSS was weighed, added with 1,000 mL of sterile water, formulated into a 5% DSS solution, and filtered with a 0.22 μm filter membrane. From day 0, the blank group was given drinking water without DSS, and the other experimental groups were given drinking water containing 5% DSS. All mice were sacrificed on day 8. After the experiment was ended, the colorectum was collected, and photographed, and its length was measured for statistical analysis.

Test [4] deals with radiation-induced lung injury mouse model. The test can be described thus: Mouse model of acute radiation-induced lung injury. The format is in vivo. The note with it: female C57BL/6 mice, 22.5 Gy whole lung irradiation, 30 mg/kg q.d, 3 weeks after modeling. As to the method:
18 female C57BL/6 mice were randomly divided into 3 groups, namely a blank control group, a group treated with irradiation alone, and a group intervened with irradiation+drug YZ001052 (30 mg/kg q.d), with 6 mice in each group.
The mice were anesthetized by intraperitoneal injection of 1% pentobarbital sodium, and were subjected to a single whole lung irradiation at 22.5 Gy, with 220 KV of X-rays by using a small animal radiation research platform (SARRP). After the irradiation was completed, the mice were fed routinely.
3 weeks after modeling, the mice were anesthetized and dissected. The lung tissue was exposed, the left lung was ligated, an open tracheotomy was performed, the lung was lavaged with cold PBS, and the bronchoalveolar lavage fluid (BALF) was collected and subjected to refrigerated centrifugation at 4° C.
The supernatant was collected, and detected for the content of the inflammatory factor TNF-α by ELISA.
The cell pellet of the alveolar lavage fluid was resuspended in 200 μL PBS and used for counting of white blood cells (WBCs).

As to `C=CC(=O)N1CCc2c(c(-c3ccnc4[nH]ccc34)nn2C)C1` [YZ001052], in test [1], the “immunosuppressive effect on SRBC-induced delayed type hypersensitivity (right paw thickness)” value was “significant immunosuppressive effects”. Also, the “swelling of the paws” value in test [2] is “improved to varying degrees”. Further, the arthritis scores entry in test [2] (compared to the model group) is given as “significantly reduced”. Further, the “length of the colorectum” value in test [3] is on record as “significantly increased”. Further, in test [4] (ELISA, FIG. 4), the “TNF-α level in the alveolar lavage fluid” value is on record as “good inhibitory effect”. Further, the “number of white blood cells (inflammatory cell infiltrates) in the alveolar lavage fluid” value in test [4] (FIG. 5) is “significantly reduce”.
